Data on five compounds can be found in ChEMBL document CHEMBL3046290, “Metabolic effects of benzylidene thiazolidinedione derivatives in high-fat fed mice” (Med Chem Res, 2012).

The test system of data set [1] is Mus musculus. Put plainly: Antihyperglycemic activity in high-fat fed Mus musculus Swiss albino (mouse) assessed as reduction of fasting serum glucose level at 30 mg/kg, po qd for 15 days. The format is functional. Set-up: scale not given: the % may be the effect or the level left.
Data set [2] concerns Mus musculus. Put plainly: Antihyperlipidemic activity in high-fat fed Mus musculus Swiss albino (mouse) assessed as reduction of serum cholesterol level at 30 mg/kg, po qd for 15 days. Details: scale not given: the % may be the effect or the level left. The format is functional.
Data set [3] deals with Mus musculus. Put plainly: Antihyperglycemic activity in high-fat fed Mus musculus Swiss albino (mouse) assessed as reduction of insulin resistance index at 30 mg/kg, po qd for 15 days. Format: functional. Set-up: scale not given: the % may be the effect or the level left.
Data set [4] deals with Mus musculus. Put plainly: Antihyperglycemic activity in high-fat fed Mus musculus Swiss albino (mouse) assessed as reduction of fasting serum insulin level at 30 mg/kg, po qd for 15 days. The format is functional. Set-up: scale not given: the % may be the effect or the level left.
The test system of data set [5] is Mus musculus. Put plainly: Antihyperlipidemic activity in high-fat fed Mus musculus Swiss albino (mouse) assessed as reduction of serum triglyceride level at 30 mg/kg, po qd for 15 days. Set-up: scale not given: the % may be the effect or the level left. Format: functional.
In data set [6] the test system is Mus musculus. Put plainly: Toxicity in high-fat fed Mus musculus Swiss albino (mouse) assessed as change in body weight at 30 mg/kg, po qd for 15 days (reference value: 39.9 +/- 1.3 g). The format is organism-based. Set-up: dose 30 mg/kg, route oral. The following applies: in vivo, 360 h.

Consider `COc1ccc(/C=C2\SC(=O)N(Cc3ccc(C)cc3)C2=O)cc1`, for which the Activity with Mus musculus [1] is on record as 46%; in the data set on Mus musculus [2], 27%; with Mus musculus [3] it was 81%; in the data set with Mus musculus [4] it was 65%; in the data set on Mus musculus [5], 44%; in the data set on Mus musculus [6], 5.12 g.

On to `COc1ccc(/C=C2\SC(=O)N(Cc3ccc(C)cc3)C2=O)c(OC)c1`, for which the Activity in the data set with Mus musculus [1] worked out at 36%; with Mus musculus [2] it was 36%; with Mus musculus [3], 57%; in the data set on Mus musculus [4] it was 33%; in the data set on Mus musculus [5], 38%; with Mus musculus [6], 6.06 g.

On to `Cc1ccc(CN2C(=O)S/C(=C\c3ccc(N(C)C)cc3)C2=O)cc1`, for which the Activity in the data set with Mus musculus [1] was 38%; in the data set on Mus musculus [2], 22%; in the data set with Mus musculus [3] it was 73%; in the data set on Mus musculus [4], 56%; with Mus musculus [5] it was 23%; in the data set with Mus musculus [6], 5.88 g.

Regarding `Cc1ccc(CN2C(=O)S/C(=C\c3ccc(Cl)cc3)C2=O)cc1`, the Activity is on record as 29% in the data set on Mus musculus [1]; 40% with Mus musculus [2]; 49% in the data set on Mus musculus [3]; 27% in the data set with Mus musculus [4]; 42% in the data set on Mus musculus [5]; 6.71 g in the data set on Mus musculus [6].

Turning to `CN(CCOc1ccc(CC2SC(=O)NC2=O)cc1)c1ccccn1` (stereo not given) [ROSIGLITAZONE], the Activity in the data set with Mus musculus [1] is given as 44%; with Mus musculus [2], 35%; in the data set with Mus musculus [3] it was 71%; in the data set on Mus musculus [4], 48%; in the data set with Mus musculus [5], 43%; in the data set on Mus musculus [6] it was 5.28 g.
